Results reported in ChEMBL document CHEMBL4033666, “Synthesis and mechanistic evaluation of novel N'-benzylidene-carbohydrazide-1H-pyrazolo[3,4-b]pyridine derivatives as non-anionic antiplatelet agents” (Eur J Med Chem, 2017).
Activity calls are given as the source filed them. Unless noted, the calls are words filed in the database; no cut-off is given here.

Experiments:
Platelet [1] = assay: Antiplatelet activity in human platelet rich plasma assessed as inhibition of arachidonic acid-induced platelet aggregation at 100 uM preincubated for 2 mins followed by arachidonic acid addition by turbidimetric method relative to control; type: functional
[2] = molecular target: T1, Prostaglandin G/H synthase 1 (Ovis aries, UniProt P05979); assay: Inhibition of ovine COX-1 assessed as reduction in PGH2 production up to 100 uM using arachidonic acid as substrate preincubated for 5 mins followed by substrate and hematin addition measured after 2 mins by ELISA relative to control; settings: sheep
T1 sequence (P05979 whole entry): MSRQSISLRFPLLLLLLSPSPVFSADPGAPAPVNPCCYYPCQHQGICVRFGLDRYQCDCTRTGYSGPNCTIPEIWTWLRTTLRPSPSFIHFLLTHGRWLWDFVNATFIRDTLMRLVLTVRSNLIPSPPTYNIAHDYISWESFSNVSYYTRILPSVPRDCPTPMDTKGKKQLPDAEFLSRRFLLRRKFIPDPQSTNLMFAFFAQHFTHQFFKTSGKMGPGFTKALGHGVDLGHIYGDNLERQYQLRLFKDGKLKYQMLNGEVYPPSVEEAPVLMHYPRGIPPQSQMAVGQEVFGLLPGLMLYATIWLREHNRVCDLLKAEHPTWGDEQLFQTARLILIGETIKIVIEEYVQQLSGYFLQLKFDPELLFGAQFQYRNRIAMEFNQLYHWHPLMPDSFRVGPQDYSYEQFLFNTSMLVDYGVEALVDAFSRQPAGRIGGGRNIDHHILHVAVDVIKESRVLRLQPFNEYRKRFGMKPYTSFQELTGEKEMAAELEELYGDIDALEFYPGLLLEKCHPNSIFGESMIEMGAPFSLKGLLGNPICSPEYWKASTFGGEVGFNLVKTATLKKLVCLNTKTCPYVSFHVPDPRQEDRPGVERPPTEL

[3] = Hemolytic activity against human erythrocytes after 3 hrs relative to control; type: ADME, cell-based, Erythrocyte; settings: read-out: Activity
[4] = molecular target: T2, Prostaglandin G/H synthase 2 (Homo sapiens, UniProt P35354); assay: Inhibition of recombinant human COX-2 assessed as reduction in PGH2 production up to 100 uM using arachidonic acid as substrate preincubated for 5 mins followed by substrate and hematin addition measured after 2 mins by ELISA relative to control
T2 sequence (P35354 whole entry): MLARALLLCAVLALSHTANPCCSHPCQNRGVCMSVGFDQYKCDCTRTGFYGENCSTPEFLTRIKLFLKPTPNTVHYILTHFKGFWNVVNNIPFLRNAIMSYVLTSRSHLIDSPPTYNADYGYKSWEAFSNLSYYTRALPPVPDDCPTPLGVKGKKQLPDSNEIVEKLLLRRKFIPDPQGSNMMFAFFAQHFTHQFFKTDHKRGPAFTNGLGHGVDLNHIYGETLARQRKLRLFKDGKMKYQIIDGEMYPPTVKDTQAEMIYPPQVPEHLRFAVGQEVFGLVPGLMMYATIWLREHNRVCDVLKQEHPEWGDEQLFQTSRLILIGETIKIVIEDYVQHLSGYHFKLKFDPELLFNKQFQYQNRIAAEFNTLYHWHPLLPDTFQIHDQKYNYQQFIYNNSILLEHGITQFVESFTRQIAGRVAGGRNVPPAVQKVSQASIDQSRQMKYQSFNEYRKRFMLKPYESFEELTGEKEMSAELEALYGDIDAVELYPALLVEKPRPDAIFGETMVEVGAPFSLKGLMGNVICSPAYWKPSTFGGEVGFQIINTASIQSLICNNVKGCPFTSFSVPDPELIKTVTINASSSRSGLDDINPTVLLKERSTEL

Cytochrome P450 3A4 = Cytochrome P450 3A4 (Homo sapiens, UniProt P08684); assay: Inhibition of recombinant human CYP3A4 expressed in baculosomes using BOMR as substrate preincubated for 10 mins followed by substrate/NADP+ addition measured for 1 hr; type: ADME; settings: for inhibition (INH): human, recombinant enzyme, 1 h
Cytochrome P450 3A4, sequence (P08684 whole entry): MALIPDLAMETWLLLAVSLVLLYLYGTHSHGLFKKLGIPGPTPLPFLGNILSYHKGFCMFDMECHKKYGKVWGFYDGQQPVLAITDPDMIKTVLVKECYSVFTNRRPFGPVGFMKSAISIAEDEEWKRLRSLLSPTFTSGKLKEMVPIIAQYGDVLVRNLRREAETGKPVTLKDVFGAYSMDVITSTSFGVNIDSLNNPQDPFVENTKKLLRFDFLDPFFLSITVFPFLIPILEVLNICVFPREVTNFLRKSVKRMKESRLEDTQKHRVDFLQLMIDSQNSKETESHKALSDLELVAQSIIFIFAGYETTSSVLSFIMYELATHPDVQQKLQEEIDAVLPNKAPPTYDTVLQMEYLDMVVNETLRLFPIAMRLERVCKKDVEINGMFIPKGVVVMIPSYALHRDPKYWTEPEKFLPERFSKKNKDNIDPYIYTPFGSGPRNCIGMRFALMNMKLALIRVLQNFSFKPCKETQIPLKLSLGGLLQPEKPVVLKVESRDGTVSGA

Platelet [5] = assay: Antiplatelet activity in human platelet rich plasma assessed as inhibition of arachidonic acid-induced platelet aggregation preincubated for 2 mins followed by arachidonic acid addition by turbidimetric method relative to control; type: functional, cell-based
Platelet [6] = assay: Drug uptake in human platelet assessed as co-localization with CD31 at 100 uM by epifluorescence assay; type: ADME, cell-based
Platelet [7] = assay: Antiplatelet activity in human platelet rich plasma assessed as inhibition of epinephrine-induced platelet aggregation preincubated for 2 mins followed by epinephrine addition by turbidimetric method; type: cell-based
Platelet [8] = assay: Antiplatelet activity in human platelet rich plasma assessed as inhibition of collagen-induced platelet aggregation at 100 uM preincubated for 2 mins followed by collagen addition by turbidimetric method relative to control; type: cell-based
Platelet [9] = assay: Antiplatelet activity in human platelet rich plasma assessed as inhibition of epinephrine-induced platelet aggregation at 100 uM preincubated for 2 mins followed by epinephrine addition by turbidimetric method relative to control; type: cell-based
Platelet [10] = assay: Potency index, ratio of aspirin IC50 to test compound IC50 for inhibition of arachidonic acid-induced platelet aggregation in human platelet rich plasma; type: functional
Platelet [11] = assay: Drug uptake in human platelet assessed as co-localization with CD31 at 100 uM by confocal microscopy analysis; type: ADME, cell-based
[12] = molecular target: Prostaglandin G/H synthase 1 (Homo sapiens, UniProt P23219); assay: Inhibition of COX1 in human platelet rich plasma assessed as decrease in PGE2 production at 100 uM using arachidonic acid as substrate after 5 mins by ELISA
Prostaglandin G/H synthase 1 (Homo sapiens, UniProt P23219), sequence (P23219 whole entry): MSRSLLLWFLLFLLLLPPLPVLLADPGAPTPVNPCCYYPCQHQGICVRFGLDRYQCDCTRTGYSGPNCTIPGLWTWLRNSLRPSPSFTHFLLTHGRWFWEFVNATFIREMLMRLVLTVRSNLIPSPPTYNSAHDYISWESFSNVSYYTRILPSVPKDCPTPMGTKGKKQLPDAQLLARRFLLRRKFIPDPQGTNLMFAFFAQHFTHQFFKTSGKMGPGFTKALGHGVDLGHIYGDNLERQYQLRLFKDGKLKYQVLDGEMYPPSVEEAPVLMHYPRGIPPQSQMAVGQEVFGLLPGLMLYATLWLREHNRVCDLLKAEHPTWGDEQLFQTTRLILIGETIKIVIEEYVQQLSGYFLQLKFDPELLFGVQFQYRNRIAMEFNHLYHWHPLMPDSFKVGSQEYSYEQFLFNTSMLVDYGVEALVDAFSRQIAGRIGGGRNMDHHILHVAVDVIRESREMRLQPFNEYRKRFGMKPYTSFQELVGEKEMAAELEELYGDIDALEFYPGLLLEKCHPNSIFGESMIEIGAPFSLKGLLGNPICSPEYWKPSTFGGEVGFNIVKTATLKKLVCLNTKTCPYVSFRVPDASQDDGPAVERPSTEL

Blood = assay: Reduction of clot retraction in human whole blood after 2 hrs; type: ADME, tissue-based
Platelet [13] = assay: Antiplatelet activity in human platelet rich plasma assessed as inhibition of ADP-induced platelet aggregation preincubated for 2 mins followed by ADP addition by turbidimetric method; type: cell-based
Platelet [14] = assay: Antiplatelet activity in human platelet rich plasma assessed as inhibition of ADP-induced platelet aggregation at 100 uM preincubated for 2 mins followed by ADP addition by turbidimetric method relative to control; type: cell-based
[15] = Binding affinity to DOPC/DOPS large unilamellar vesicles assessed as blue shift at 100 uM by DAPI staining based fluorescence assay
Plasma [16] = assay: Change in prothrombin time in human plasma at 100 uM incubated for 15 mins at room temperature and 2 mins at 37 degC in presence of calcium thromboplastin; type: ADME, cell-free
Plasma [17] = assay: Change in activated partial thromboplastin time in human plasma at 100 uM incubated for 15 mins at room temperature and 2 mins at 37 degC in presence of CaCl2; type: ADME, cell-free
Platelet [18] = assay: Antiplatelet activity in human platelet rich plasma assessed as inhibition of […]-induced platelet aggregation at 100 uM preincubated for 2 mins followed by […] addition by turbidimetric method; type: functional, cell-based
[19] = molecular target: T3, Thromboxane-A synthase (Homo sapiens) (UniProt P24557); assay: Inhibition of TXS in human platelet rich plasma assessed as decrease in TXB2 production at 100 uM using arachidonic acid after 5 mins by ELISA
T3 sequence (whole entry): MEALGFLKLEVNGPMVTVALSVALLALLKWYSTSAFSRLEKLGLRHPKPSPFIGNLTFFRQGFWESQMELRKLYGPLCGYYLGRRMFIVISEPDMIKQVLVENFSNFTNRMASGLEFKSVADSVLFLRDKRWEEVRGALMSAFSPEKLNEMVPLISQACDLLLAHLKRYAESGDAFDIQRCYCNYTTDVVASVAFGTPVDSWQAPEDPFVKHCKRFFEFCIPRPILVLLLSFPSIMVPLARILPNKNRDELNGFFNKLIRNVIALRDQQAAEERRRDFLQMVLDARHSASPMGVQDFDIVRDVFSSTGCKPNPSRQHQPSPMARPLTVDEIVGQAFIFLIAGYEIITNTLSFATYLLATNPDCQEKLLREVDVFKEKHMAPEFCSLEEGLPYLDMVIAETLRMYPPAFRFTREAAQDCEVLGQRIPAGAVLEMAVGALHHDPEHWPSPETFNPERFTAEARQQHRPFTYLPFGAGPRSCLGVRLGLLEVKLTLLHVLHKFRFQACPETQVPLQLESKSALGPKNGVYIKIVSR

Platelet [20] = assay: Antiplatelet activity in human platelet rich plasma assessed as inhibition of collagen-induced platelet aggregation preincubated for 2 mins followed by collagen addition by turbidimetric method; type: cell-based
Platelet [21] = assay: Potency index, ratio of ozagrel IC50 to test compound IC50 for inhibition of arachidonic acid-induced platelet aggregation in human platelet rich plasma; type: functional
[22] = Selectivity ratio of IC50 for recombinant human CYP3A4 to IC50 for arachidonic acid-induced platelet aggregation in human platelet rich plasma

Row | Structure (SMILES) | inhibition at 100 µM (Platelet [1]) | inhibition (INH) [2] | hemolysis at 3 h [3] | inhibition (INH) [4] | IC50 (Platelet [5]) | Drug uptake (Platelet [6]) | IC50 (Platelet [7]) | inhibition at 100 µM (Platelet [8]) | inhibition at 100 µM (Platelet [9]) | Drug uptake (Platelet [11]) | inhibition (INH) [12] | Activity (Blood) | IC50 (Platelet [13]) | inhibition at 100 µM (Platelet [14]) | Activity [15] | Activity (Plasma [16]) | Activity (Plasma [17]) | inhibition (Platelet [18]) | inhibition [19] | IC50 (Platelet [20]) | also measured
1 | Cc1cc(C(=O)N/N=C/c2ccc(F)cc2)c2c(C)nn(-c3ccccc3)c2n1 | 95.4% | Not Active | 5% | Not Active | 3.67 to 10.2 µM | Active | > 100 µM | 9.19% | 3.88% | Active | Not Active | Non-Toxic | > 100 µM | 13.8% | Active | Non-Toxic | Non-Toxic | inactive | Active | > 100 µM | inhibition (INH) (Cytochrome P450 3A4): Dose-dependent effect; Ratio IC50 (Platelet [10]): <=10; Ratio IC50 (Platelet [21]): <=10
2 | Cc1cc(C(=O)N/N=C/c2ccc(Cl)cc2)c2c(C)nn(-c3ccccc3)c2n1 | 83.8% | Not Active | 10% | Not Active | 3.67 to 10.2 µM | Active | > 100 µM | 35.3% | 1.1% | Active | Active | Non-Toxic | > 100 µM | 3.4% | Active | Non-Toxic | Non-Toxic | inactive | Active | > 100 µM | IC50 (Cytochrome P450 3A4): 94.6 µM; Ratio IC50 (Platelet [10]): <=10; Ratio IC50 (Platelet [21]): <=10; Ratio IC50 [22]: 20 to 30
3 | Cc1ccc(/C=N/NC(=O)c2cc(C)nc3c2c(C)nn3-c2ccccc2)cc1 | 89.2% | Not Active | – | Not Active | 3.67 to 10.2 µM | Active | > 100 µM | 5.58% | 0% | Active | Not Active | Non-Toxic | > 100 µM | 6.2% | Active | Non-Toxic | Non-Toxic | inactive | Active | > 100 µM | inhibition (INH) (Cytochrome P450 3A4): Dose-dependent effect; Ratio IC50 (Platelet [10]): <=10; Ratio IC50 (Platelet [21]): <=10
4 | Cc1cc(C(=O)N/N=C/c2ccc([N+](=O)[O-])cc2)c2c(C)nn(-c3ccccc3)c2n1 | 95% | Not Active | 7.3% | Not Active | 78.9 µM | Active | > 100 µM | 4.1% | 4.15% | Active | Not Active | Non-Toxic | > 100 µM | 0% | Active | Non-Toxic | Non-Toxic | inactive | Active | > 100 µM | IC50 (Cytochrome P450 3A4): 156 µM
